Here are results for one molecule from patent US20180110824A1, “Macrocyclic Modulators of the Ghrelin Receptor” (Ocera Therapeutics, Inc., priority 2016, published 2018).

Data set [1] has as its target T1, human growth hormone secretagogue receptor (hGHS-R1a) (Homo sapiens, UniProt Q92847).
T1 construct: purchased PerkinElmer BioSignal #RBHGHSM; host or cells: HEK-293, stably transfected
As to the kind of experiment: Competitive radioligand binding assay (ghrelin receptor), [125I]-ghrelin displacement on GHS-R/HEK 293 membranes. The following applies: Ki (nM).

In data set [2] the target is T2, human ghrelin receptor (hGHS-R1a) (Homo sapiens, UniProt Q92847).
T2 construct: host or cells: CHO-K1 co-expressing Gα16 and mitochondrially targeted aequorin
As to the kind of experiment: Aequorin functional assay (ghrelin receptor), CHO-K1 cells co-expressing Gα16 and aequorin. The format is cell-based. As to conditions: EC50 (nM), Table 4; functional (agonist) activity; TFA salts unless otherwise noted. A digest of the protocol:
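CHO-K1 cells expressing hGHS-R1a, Gα16 and mitochondrial aequorin, loaded overnight at rt with 5 μM coelenterazine, then challenged in DMEM/0.1% BSA pH 7.0 with compound at 0.001–10 μM (DMSO <0.6%).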

Data set [3] is described as follows: Pharmacokinetic analysis in rats (i.v., s.c., p.o.). The format is in vivo. As to conditions: male, Sprague-Dawley, plasma, iv, 2 mg/kg, rat. The procedure:
• 1. Intravenous (i.v.): 2 mg/kg • 2. Subcutaneous (s.c): 2 mg/kg • 3. Oral (p.o.): 8 mg/kg
Whole blood samples were chilled and immediately processed by centrifugation to obtain plasma.
Plasma samples were stored frozen (−70° C.) until analysis.

For data set [4], the system named is gastric emptying in fasted rats. Kind of data set: Gastric emptying in fasted rats (phenol red methylcellulose meal). The format is in vivo, rat. As to conditions: fasted rats. The procedure:
To examine the effects of compounds of the invention in a model for gastroparesis, compounds were evaluated for possible effects on gastric emptying in fasted rats.
GHRP-6 and test samples were dissolved in vehicle of 9% HPBCD/0.9% NaCl. Immediately following oral administration of methylcellulose (2%) containing phenol red (0.05%) (2 mL/rat), test substances or vehicle (9% HPBCD/0.9% NaCl) were each administered intravenously (i.v.) at a dosing volume of 5 mL/kg.
Male Wistar rats were provided by LASCO (A Charles River Licensee Corporation, Taiwan). Space allocation for 6 animals was 45×23×15 cm. Animals were housed in APEC® cages and maintained in a controlled temperature (22° C.-24° C.) and humidity (60% -80%) environment with 12 h light, 12 h dark cycles for at least one week in the laboratory prior to being used. Free access to standard lab chow for rats (Lab Diet, Rodent Diet, PMI Nutrition International, USA) and tap water was granted. All aspects of this work including housing, experimentation and disposal of animals were performed in general accordance with the Guide for the Care and Use of Laboratory Animals (National Academy Press, Washington, D.C., 1996).
Test substances were each administered intravenously to a group of 5 O/N-fasted Wistar derived male rats weighing 200±20 g immediately after methylcellulose (2%) containing phenol red (0.05%) was administered orally at 2 mL/animal. The animals were then sacrificed 15 minutes later. The stomach was immediately removed, homogenized in 0.1 N NaOH (5 mL) and centrifuged. Following protein precipitation by 20% trichloroacetic acid (0.5 mL)and re-alkalization of the supernatant with 0.1 N NaOH, total phenol red remaining in the stomach was determined by a colorimetric method at 560 nm. A 30 percent or more (≥30%) increase in gastric emptying, detected as the decrease in phenol red concentration in the stomach relative to the vehicle control group, is considered significant.
• 1. Overnight-fasted rats (male Wistar, ˜200 g, N=5/group) were given a meal of methylcellulose (2%) by intragastric gavage. The meal was labeled with phenol red (0.05%). • 2. […] Animals were sacrificed 15 minutes later; the stomach was immediately removed and homogenized in 0.1 N NaOH and centrifuged. • 4. Total phenol red remaining in the stomach was quantified by a colorimetric method at 560 nm. • 5. A >30% increase in gastric emptying, detected based on the phenol red concentration in comparison to the control group, is considered significant.

T1 sequence (Q92847 whole entry): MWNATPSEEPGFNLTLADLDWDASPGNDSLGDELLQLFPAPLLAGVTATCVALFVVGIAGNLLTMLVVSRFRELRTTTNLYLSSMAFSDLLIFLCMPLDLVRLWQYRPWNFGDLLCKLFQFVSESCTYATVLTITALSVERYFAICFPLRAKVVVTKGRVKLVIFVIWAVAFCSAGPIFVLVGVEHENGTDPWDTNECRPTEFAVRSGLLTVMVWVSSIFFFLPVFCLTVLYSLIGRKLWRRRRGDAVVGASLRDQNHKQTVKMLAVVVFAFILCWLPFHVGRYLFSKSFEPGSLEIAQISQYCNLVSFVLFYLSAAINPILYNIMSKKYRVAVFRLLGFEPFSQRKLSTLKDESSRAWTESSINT
T2 sequence (Q92847 whole entry): as above

Usually Ki stands for the dissociation constant of the complex between target and ligand, obtained from inhibition or displacement. For orientation: EC50 means the midpoint of the concentration-response curve. As to `CCC(C)[C@@H]1NCCOc2ccccc2CCCNC(=O)[C@@H](Cc2ccc(Cl)cc2)NC(=O)[C@@H](C)N(C)C1=O` (stereo partly shown) [compound 25], the Ki in data set [1] (Binding activity at the human ghrelin receptor, [125I]-ghrelin displacement) lay within 0.1 to 10 nM; in data set [1] (Table 4, TFA salts unless otherwise noted), 0.1 to 10 nM. The EC50 in data set [2] was in the range of 1 to 100 nM. The clearance in data set [3] was found to be 67 mL/min/kg. Further, in data set [3] (read-out: Elimination (t1/2, min)), the half-life worked out at 31 min. Further, the gastric emptying result in data set [4] (30 μg/kg) is reported as “demonstrated gastric emptying”. Besides, the “increase in gastric emptying relative to the vehicle control group” value in data set [4] (100 μg/kg i.v.) is reported as 39%.
